Patent publication US20070093520A1, “Method of treatment of diarrhea-predominant irritable bowel syndrome in a subject” (priority 2005, published 2007)

Tested on: diarrhea-predominant IBS subjects
Assay: 3007 Study: open-label 52-week safety study, adverse events and withdrawals
Conditions: Cilansetron 2 mg/Cilansetron 2 mg

## Cc1nccn1C[C@H]1CCc2c(c3cccc4c3n2CCC4)C1=O [cilansetron, (R)-(−)-4,5,6,8,9,10-hexahydro-10-[(2-methyl-1H-imidazol-1-yl)methyl]-11H-pyrido-[3,2,1-jk]-carbazol-11-one]
  TEAE: Infections and Infestations: 106 (41%) n (%)
  TEAE: Influenza: 11 (4%) n (%)
  TEAE: Influenza Viral Infections: 11 (4%) n (%)
  TEAE: Inguinal Hernia NOS: 0 n (%)
  TEAE: Inguinal Hernias: 0 n (%)
  TEAE: Injury, Poisoning and Procedural Complications: 26 (10%) n (%)
  TEAE: Intervertebral Disc Degeneration NOS: 2 (<1%) n (%)
  TEAE: Intervertebral Disc Disorder NOS: 1 (<1%) n (%)
  TEAE: Intervertebral Disc Disorders NEC: 5 (2%) n (%)
  TEAE: Intervertebral Disc Herniation: 4 (2%) n (%)
  TEAE: Intestinal Haemorrhages: 4 (2%) n (%)
  TEAE: Intraocular Pressure Increased: 1 (<1%) n (%)
  TEAE: Investigations: 77 (30%) n (%)
  TEAE: Irritable Bowel Syndrome: 1 (<1%) n (%)
  TEAE: Irritable Bowel Syndrome Aggravated: 3 (1%) n (%)
  TEAE: Joint Related Disorders NEC: 1 (<1%) n (%)
  TEAE: Joint Related Signs and Symptoms: 11 (4%) n (%)
  TEAE: Joint Sprain: 1 (<1%) n (%)
  TEAE: Joint Swelling: 1 (<1%) n (%)
  TEAE: Kidney Infection NOS: 0 n (%)
  TEAE: Laceration: 3 (1%) n (%)
  TEAE: Ligament Sprain: 1 (<1%) n (%)
  TEAE: Limb Discomfort NOS: 0 n (%)
  TEAE: Limb Injuries NEC (Incl Traumatic Amputation): 1 (<1%) n (%)
  TEAE: Limb Injury NOS: 2 (<1%) n (%)
  TEAE: Lip and Palate Disorders NEC: 0 n (%)
  TEAE: Liver Function Analyses: 12 (5%) n (%)
  TEAE: Liver Function Tests NOS Abnormal: 0 n (%)
  TEAE: Localised Infection: 1 (<1%) n (%)
  TEAE: Localised Osteoarthritis: 1 (<1%) n (%)
  TEAE: Loss of Consciousness: 1 (<1%) n (%)
  TEAE: Lower Limb Fracture NOS: 0 n (%)
  TEAE: Lower Limb Fractures and Dislocations: 1 (<1%) n (%)
  TEAE: Lower Respiratory Tract and Lung Infections: 21 (8%) n (%)
  TEAE: Lymphocyte Count Increased: 2 (<1%) n (%)
  TEAE: Memory Loss (Excl Dementia): 1 (<1%) n (%)
  TEAE: Metabolic Bone Disorders: 2 (<1%) n (%)
  TEAE: Metabolism Tests NEC: 4 (2%) n (%)
  TEAE: Migraine Headaches: 5 (2%) n (%)
  TEAE: Migraine NOS: 5 (2%) n (%)
  TEAE: Mineral and Electrolyte Analyses: 2 (<1%) n (%)
  TEAE: Monoarthritis: 1 (<1%) n (%)
  TEAE: Monocyte Count Decreased: 1 (<1%) n (%)
  TEAE: Monocyte Count Increased: 2 (<1%) n (%)
  TEAE: Mononeuropathies: 2 (<1%) n (%)
  TEAE: Movement Disorder NOS: 0 n (%)
  TEAE: Muscle Cramps: 8 (3%) n (%)
  TEAE: Muscle Infections and Inflammations: 0 n (%)
  TEAE: Muscle Pains: 2 (<1%) n (%)
  TEAE: Muscle Related Signs and Symptoms NEC: 9 (4%) n (%)
  TEAE: Muscle Spasms: 1 (<1%) n (%)
  TEAE: Muscle Strain: 5 (2%) n (%)
  TEAE: Muscle Tone Abnormalities: 1 (<1%) n (%)
  TEAE: Muscle, Tendon and Ligament Injuries: 6 (2%) n (%)
  TEAE: Musculoskeletal Chest Pain: 1 (<1%) n (%)
  TEAE: Musculoskeletal and Connective Tissue Disorders: 56 (22%) n (%)
  TEAE: Musculoskeletal and Connective Tissue Signs and Symptoms NEC: 19 (7%) n (%)
  TEAE: Musculoskeletal and Soft Tissue Imaging Procedures: 0 n (%)
  TEAE: Myalgia: 1 (<1%) n (%)
  TEAE: Myasthenia Gravis: 0 n (%)
  TEAE: Mycoplasma Infections: 1 (<1%) n (%)
  TEAE: Myeloradiculopathy: 0 n (%)
  TEAE: Myositis: 0 n (%)
  TEAE: Nail Fungal Infection NOS: 0 n (%)
  TEAE: Nail Infection NOS: 1 (<1%) n (%)
  TEAE: Nasopharyngitis: 18 (7%) n (%)
  TEAE: Nausea: 15 (6%) n (%)
  TEAE: Nausea and Vomiting Symptoms: 19 (7%) n (%)
  TEAE: Neck Pain: 1 (<1%) n (%)
  TEAE: Nervous System Disorders: 41 (16%) n (%)
  TEAE: Neurological Signs and Symptoms NEC: 4 (2%) n (%)
  TEAE: Neuromuscular Junction Dysfunction: 0 n (%)
  TEAE: Neutrophil Count Decreased: 3 (1%) n (%)
  TEAE: Night Cramps: 1 (<1%) n (%)
  TEAE: Nitrite Urine Present: 1 (<1%) n (%)
  TEAE: Non-Accidental Overdose: 1 (<1%) n (%)
  TEAE: Non-Site Specific Injuries NEC: 5 (2%) n (%)
  TEAE: Non-Site Specific Procedural Complications: 3 (1%) n (%)
  TEAE: Ophthalmic Function Diagnostic Procedures: 1 (<1%) n (%)
  TEAE: Oral Dryness and Saliva Altered: 1 (<1%) n (%)
  TEAE: Osteoarthritis Aggravated: 3 (1%) n (%)
  TEAE: Osteoarthropathies: 4 (2%) n (%)
  TEAE: Osteopenia: 0 n (%)
  TEAE: Osteoporosis NOS: 2 (<1%) n (%)
  TEAE: Otitis Media NOS: 0 n (%)
  TEAE: Overdoses: 1 (<1%) n (%)
  TEAE: Pain in Limb: 2 (<1%) n (%)
  TEAE: Paraesthesias and Dysaesthesias: 1 (<1%) n (%)
  TEAE: Parkinson's Disease NOS: 1 (<1%) n (%)
  TEAE: Parkinson's Disease and Parkinsonism: 1 (<1%) n (%)
  TEAE: Periorbital Haematoma: 1 (<1%) n (%)
  TEAE: Peripheral Swelling: 1 (<1%) n (%)
  TEAE: Pharyngitis Streptococcal: 4 (2%) n (%)
  TEAE: Physical Examination Procedures: 8 (3%) n (%)
  TEAE: Plantar Fasciitis: 2 (<1%) n (%)
  TEAE: Pneumonia Mycoplasmal: 1 (<1%) n (%)
  TEAE: Pneumonia NOS: 1 (<1%) n (%)
  TEAE: Popliteal Bursitis: 0 n (%)
  TEAE: Post Procedural Discomfort: 1 (<1%) n (%)
  TEAE: Post Procedural Pain: 2 (<1%) n (%)
  TEAE: Proctalgia: 0 n (%)
  TEAE: Protein Urine Present: 2 (<1%) n (%)
  TEAE: Pruritus Ani: 0 n (%)
  TEAE: Rectal Cramps: 1 (<1%) n (%)
  TEAE: Rectal Disorder NOS: 0 n (%)
  TEAE: Rectal Haemorrhage: 4 (2%) n (%)
  TEAE: Rectal Tenesmus: 0 n (%)
  TEAE: Red Blood Cell Analyses: 1 (<1%) n (%)
  TEAE: Red Blood Cells Urine: 0 n (%)
  TEAE: Renal Bruit: 0 n (%)
  TEAE: Renal Function Analyses: 1 (<1%) n (%)
  TEAE: Reproductive Organ and Breast Histopathology Procedures: 1 (<1%) n (%)
  TEAE: Respiratory Tract Infection NOS: 1 (<1%) n (%)
  TEAE: Rheumatoid Arthritis: 0 n (%)
  TEAE: Rheumatoid Arthritis Aggravated: 0 n (%)
  TEAE: Rheumatoid Arthropathies: 0 n (%)
  TEAE: Rhinoviral Infections: 18 (7%) n (%)
  TEAE: Rib Fracture: 1 (<1%) n (%)
  TEAE: Road Traffic Accident: 1 (<1%) n (%)
  TEAE: Rotator Cuff Syndrome: 0 n (%)
  TEAE: Seizures and Seizure Disorders NEC: 1 (<1%) n (%)
  TEAE: Sinus Headache: 3 (1%) n (%)
  TEAE: Sinusitis Acute NOS: 0 n (%)
  TEAE: Sinusitis NOS: 24 (9%) n (%)
  TEAE: Site Specific Injuries NEC: 6 (2%) n (%)
  TEAE: Skeletal and Cardiac Muscle Analyses: 19 (7%) n (%)
  TEAE: Skin Fungal Infection NOS: 1 (<1%) n (%)
  TEAE: Skin Infection NOS: 0 n (%)
  TEAE: Skin Structures and Soft Tissue Infections: 1 (<1%) n (%)
  TEAE: Sleep Apnoea Syndrome: 0 n (%)
  TEAE: Sleep Apnoeas: 0 n (%)
  TEAE: Soft Tissue Disorders NEC: 2 (<1%) n (%)
  TEAE: Somnolence: 1 (<1%) n (%)
  TEAE: Speech and Language Abnormalities: 0 n (%)
  TEAE: Spinal Cord and Nerve Root Disorders NEC: 0 n (%)
  TEAE: Spondylitic Myelopathy: 0 n (%)
  TEAE: Spondyloarthropathies: 1 (<1%) n (%)
  TEAE: Spondylosis: 1 (<1%) n (%)
  TEAE: Staphylococcal Infection NOS: 1 (<1%) n (%)
  TEAE: Staphylococcal Infections: 1 (<1%) n (%)
  TEAE: Status Epilepticus: 1 (<1%) n (%)
  TEAE: Stomach Discomfort: 0 n (%)
  TEAE: Streptococcal Infection NOS: 1 (<1%) n (%)
  TEAE: Streptococcal Infections: 5 (2%) n (%)
  TEAE: Stress Fracture: 1 (<1%) n (%)
  TEAE: Temporomandibular Joint Disorder NOS: 1 (<1%) n (%)
  TEAE: Tendon Disorders: 0 n (%)
  TEAE: Tendonitis: 0 n (%)
  TEAE: Tension Headaches: 1 (<1%) n (%)
  TEAE: Thoracic Cage Fractures and Dislocations: 1 (<1%) n (%)
  TEAE: Tinea Cruris: 0 n (%)
  TEAE: Tinea Infections: 1 (<1%) n (%)
  TEAE: Tinea Pedis: 1 (<1%) n (%)
  TEAE: Tissue Enzyme Analyses NEC: 2 (<1%) n (%)
  TEAE: Tongue Coated: 1 (<1%) n (%)
  TEAE: Tongue Signs and Symptoms: 1 (<1%) n (%)
  TEAE: Tooth Abscess: 6 (2%) n (%)
  TEAE: Tooth Disorder NOS: 1 (<1%) n (%)
  TEAE: Tooth Impacted: 1 (<1%) n (%)
  TEAE: Tooth Infection: 1 (<1%) n (%)
  TEAE: Toothache: 2 (<1%) n (%)
  TEAE: Total Number of Subjects with at Least One TEAE: 220 (86%) n (%)
  TEAE: Transient Global Amnesia: 1 (<1%) n (%)
  TEAE: Tremor: 1 (<1%) n (%)
  TEAE: Tremor (Excl Congenital): 1 (<1%) n (%)
  TEAE: Trigger Finger: 0 n (%)
  TEAE: Triglyceride Analyses: 6 (2%) n (%)
  TEAE: Umbilical Hernia NOS: 1 (<1%) n (%)
  TEAE: Umbilical Hernias: 1 (<1%) n (%)
